# Measured values reported in ChEMBL document CHEMBL4376892, “Identification of Parthenolide Dimers as Activators of Pyruvate Kinase M2 in Xenografts of Glioblastoma Multiforme in Vivo” (J Med Chem, 2020).
# The source made the active and inactive calls. The calls are words filed in the database; no cut-off is given here.
# Columns and labels:
# [1] = tested on: U-87MG ATCC; test: Effect on total PKM2 protein expression in human U87 cells at 0.5 to 5 uM after 48 hrs by Western blot analysis; format: functional, cell-based
# [2] = biological target: T1, Inhibitor of nuclear factor kappa-B kinase subunit beta (Homo sapiens) (UniProt O14920); test: Effect on IKKbeta phosphorylation in human U118MG cells at 0.2 to 0.5 uM after 48 hrs by Western blot analysis; format: cell-based
# T1 sequence (whole entry): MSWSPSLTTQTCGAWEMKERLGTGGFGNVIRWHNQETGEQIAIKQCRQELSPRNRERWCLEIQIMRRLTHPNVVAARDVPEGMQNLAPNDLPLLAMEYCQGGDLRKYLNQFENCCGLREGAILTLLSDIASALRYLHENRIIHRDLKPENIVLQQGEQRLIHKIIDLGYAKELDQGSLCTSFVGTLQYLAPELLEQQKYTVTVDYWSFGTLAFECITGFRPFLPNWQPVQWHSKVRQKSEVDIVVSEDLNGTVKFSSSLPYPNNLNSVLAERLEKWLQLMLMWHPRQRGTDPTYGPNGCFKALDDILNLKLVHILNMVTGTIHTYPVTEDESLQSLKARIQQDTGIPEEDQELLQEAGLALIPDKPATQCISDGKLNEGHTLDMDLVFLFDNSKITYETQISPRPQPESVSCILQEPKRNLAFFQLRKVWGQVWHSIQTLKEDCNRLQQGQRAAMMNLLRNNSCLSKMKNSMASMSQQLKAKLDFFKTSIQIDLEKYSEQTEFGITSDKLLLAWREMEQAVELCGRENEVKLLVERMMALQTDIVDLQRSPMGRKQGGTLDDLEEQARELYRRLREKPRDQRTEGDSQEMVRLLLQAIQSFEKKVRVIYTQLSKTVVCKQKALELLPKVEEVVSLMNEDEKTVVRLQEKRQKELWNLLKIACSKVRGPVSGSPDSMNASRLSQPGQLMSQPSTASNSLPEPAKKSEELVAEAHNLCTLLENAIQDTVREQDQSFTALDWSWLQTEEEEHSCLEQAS
# [3] = biological target: T2, Pyruvate kinase PKM (Homo sapiens, UniProt P14618); test: Inhibition of PKM2 dimer nuclear translocation in human U87 cells assessed as reduction in PKM2 accumulation in nucleus at 0.5 to 1 uM after 48 hrs by Western blot analysis; format: cell-based; settings: U-87MG ATCC
# T2 sequence (P14618 2-531 limits assumed): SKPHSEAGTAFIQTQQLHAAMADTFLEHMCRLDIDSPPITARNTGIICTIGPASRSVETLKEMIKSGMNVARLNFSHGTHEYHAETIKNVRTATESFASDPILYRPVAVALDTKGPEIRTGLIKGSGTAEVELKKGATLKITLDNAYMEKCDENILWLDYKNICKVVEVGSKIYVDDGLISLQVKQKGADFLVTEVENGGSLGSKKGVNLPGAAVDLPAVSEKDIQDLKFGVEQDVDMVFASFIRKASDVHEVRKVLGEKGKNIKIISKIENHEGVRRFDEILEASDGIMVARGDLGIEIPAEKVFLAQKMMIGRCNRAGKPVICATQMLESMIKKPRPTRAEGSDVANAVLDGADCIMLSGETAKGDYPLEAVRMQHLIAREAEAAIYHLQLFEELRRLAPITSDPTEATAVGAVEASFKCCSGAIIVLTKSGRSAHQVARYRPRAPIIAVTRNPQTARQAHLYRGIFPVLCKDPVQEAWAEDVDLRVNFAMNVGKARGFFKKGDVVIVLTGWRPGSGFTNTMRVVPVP
# [4] = biological target: T2, Pyruvate kinase PKM; test: Activation of PKM2 in human U87 cells assessed as increase in E-cadherin expression at 1 to 2 uM after 24 hrs by Western blot analysis; format: cell-based; settings: U-87MG ATCC
# [5] = biological target: T2, Pyruvate kinase PKM; test: Activation of PKM2 in human U118MG cells assessed as increase in PKM2 tetramer formation at 0.5 to 1 uM after 48 hrs by chemical cross-linking based Western blot analysis; format: cell-based
# [6] = tested on: U-118-MG; test: Antiinvasive activity against human U118MG cells transfected with lentivirus expressing shNC at 2 uM incubated for 48 hrs by crystal violet staining based transwell assay; format: functional, cell-based
# [7] = biological target: T2, Pyruvate kinase PKM; test: Activation of PKM2 in human U87 cells assessed as reduction in bcl-xl expression at 1 to 2 uM after 48 hrs by Western blot analysis; format: cell-based; settings: U-87MG ATCC
# [8] = tested on: U-118-MG; test: Effect on IKK-beta protein expression in human U118MG cells at 0.2 to 0.5 uM after 48 hrs by Western blot analysis; format: functional, cell-based
# [9] = tested on: U-118-MG; test: Induction of apoptosis in human U118MG cells transfected with lentivirus expressing shPKM2 assessed as viable cells after 48 hrs by Annexin-V-FITC/PI-staining based flow cytometric analysis (reference value: 97.7%); format: functional
# [10] = tested on: U-118-MG; test: Antimigratory activity against human U118MG cells transfected with lentivirus expressing shNC at 2 uM incubated for 48 hrs by crystal violet staining based transwell assay; format: functional, cell-based
# [11] = tested on: U-87 MG; test: Antimetastatic activity against human U87 cells assessed as reduction in cell migration at 2 uM after 24 hrs by crystal violet staining based transwell assay; format: functional; settings: U-87MG ATCC
# [12] = tested on: U-118-MG; test: Induction of apoptosis in human U118MG cells after 48 hrs by Annexin-V-FITC/PI-staining based flow cytometric analysis; format: functional, cell-based
# [13] = tested on: U-87 MG; test: Antimigratory activity against human U87 cells transfected with lentivirus expressing shPKM2 at 2 uM incubated for 48 hrs by crystal violet staining based transwell assay; format: functional, cell-based; settings: U-87MG ATCC
# [14] = tested on: U-87 MG; test: Antiproliferative activity against human U87 cells transfected with lentivirus expressing shNC assessed as reduction in cell viability after 24 hrs by MTT assay; format: functional, cell-based, U-87MG ATCC
# [15] = biological target: T2, Pyruvate kinase PKM; test: Binding affinity to recombinant human N-terminal 6His-tagged PKM2 expressed in Escherichia coli BL21 cells assessed as increase in thermal stability of enzyme at melting temperature of 42 to 56 degC at 10 to 50 uM by western blot analysis
# [16] = biological target: T2, Pyruvate kinase PKM; test: Activation of PKM2 in human U118MG cells assessed as reduction in vimentin expression at 1 to 2 uM after 24 hrs by Western blot analysis; format: cell-based
# [17] = biological target: T2, Pyruvate kinase PKM; test: Activation of PKM2 in human U87 cells assessed as increase in bax protein expression at 1 to 2 uM after 48 hrs by Western blot analysis; format: cell-based; settings: U-87MG ATCC
# [18] = biological target: T2, Pyruvate kinase PKM; test: Activation of recombinant human N-terminal 6His-tagged PKM2 expressed in Escherichia coli BL21 cells at 10 uM after 30 mins by fluorescence based analysis relative to control
# [19] = biological target: T2, Pyruvate kinase PKM; test: Inhibition of PKM2 dimer nuclear translocation in human U118MG cells assessed as reduction in PKM2 accumulation in nucleus at 0.5 to 1 uM after 48 hrs by Western blot analysis; format: cell-based
# [20] = tested on: U-118-MG; test: Induction of PDK4 protein expression in human U118MG cells at 2 uM after 48 hrs by Western blot analysis; format: functional, cell-based
# [21] = tested on: U-87 MG; test: Antiproliferative activity against human U87 cells transfected with lentivirus expressing shPKM2 assessed as reduction in cell viability after 24 hrs by MTT assay; format: functional, cell-based, U-87MG ATCC
# [22] = biological target: Transcription factor p65 (Homo sapiens) (UniProt Q04206); test: Effect on NFkappaB p65 nuclear translocation in human U118MG cells at 0.2 to 0.5 after 48 hrs by Western blot analysis; format: cell-based
# Sequence of Transcription factor p65 (Homo sapiens) (Q04206 whole entry): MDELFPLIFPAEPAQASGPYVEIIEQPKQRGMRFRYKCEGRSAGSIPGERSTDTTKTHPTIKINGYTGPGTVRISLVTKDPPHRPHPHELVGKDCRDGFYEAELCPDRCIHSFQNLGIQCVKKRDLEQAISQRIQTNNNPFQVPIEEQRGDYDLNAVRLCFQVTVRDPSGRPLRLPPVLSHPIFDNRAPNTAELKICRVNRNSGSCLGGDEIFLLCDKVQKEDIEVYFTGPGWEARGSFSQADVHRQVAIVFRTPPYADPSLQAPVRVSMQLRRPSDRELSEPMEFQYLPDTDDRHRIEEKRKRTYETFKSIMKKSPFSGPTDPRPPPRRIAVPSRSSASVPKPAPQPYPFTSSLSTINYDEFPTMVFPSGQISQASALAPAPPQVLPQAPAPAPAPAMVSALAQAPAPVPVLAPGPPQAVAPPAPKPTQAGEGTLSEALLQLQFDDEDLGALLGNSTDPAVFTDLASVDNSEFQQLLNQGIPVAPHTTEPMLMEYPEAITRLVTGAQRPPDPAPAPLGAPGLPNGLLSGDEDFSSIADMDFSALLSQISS
# [23] = biological target: T2, Pyruvate kinase PKM; test: Activation of PKM2 in human U118MG cells assessed as inhibition of STAT3 phosphorylation at 1 to 2 uM after 24 hrs by Western blot analysis; format: cell-based
# [24] = biological target: T2, Pyruvate kinase PKM; test: Activation of PKM2 in human U87 cells assessed as increase in PKM2 tetramer formation at 0.5 to 1 uM after 48 hrs by chemical cross-linking based Western blot analysis; format: cell-based; settings: U-87MG ATCC
# [25] = tested on: U-87 MG; test: Induction of apoptosis in human U87 cells assessed as viable cells after 48 hrs by Annexin-V-FITC/PI-staining based flow cytometric analysis (reference value: 93.8%); format: functional, U-87MG ATCC
# [26] = tested on: U-87 MG; test: Induction of apoptosis in human U87 cells transfected with lentivirus expressing shNC assessed as viable cells after 48 hrs by Annexin-V-FITC/PI-staining based flow cytometric analysis (reference value: 98.5%); format: functional, U-87MG ATCC
# [27] = tested on: U-87 MG; test: Inhibition of colony formation in human U87 cells after 7 days; format: functional, cell-based; settings: U-87MG ATCC
# [28] = tested on: U-87 MG; test: Induction of apoptosis in human U87 cells transfected with lentivirus expressing shPKM2 assessed as early apoptotic cells after 48 hrs by Annexin-V-FITC/PI-staining based flow cytometric analysis (reference value: 0.88%); format: functional, U-87MG ATCC
# [29] = tested on: U-87 MG; test: Induction of apoptosis in human U87 cells after 48 hrs by Annexin-V-FITC/PI-staining based flow cytometric analysis; format: functional, cell-based; settings: U-87MG ATCC
structure (smiles),measurement,setting,value
C=C1C(=O)O[C@H]2[C@H]1CC/C(C(=O)OCCOCCOC(=O)/C1=C/CC[C@@]3(C)O[C@H]3[C@H]3OC(=O)C(=C)[C@@H]3CC1)=C\CC[C@@]1(C)O[C@@H]21,Activity,[1],inactive
same,Activity,[2],inactive
same,inhibition,[3],Active
same,Activity,[4],Active
same,Activity,[5],Active
same,Activity,[6],Active
same,Activity,[7],Active
same,Activity,[8],inactive
same,Activity,[9],92.8%
same,Activity,[10],Active
same,Activity,[11],Active
same,Activity,[12],Dose-dependent effect
same,Activity,[13],inactive
same,IC50,[14],7.39 µM
same,Activity,[15],Active
same,Activity,[16],Active
same,Activity,[17],Active
same,fold change (FC),[18],> 2
same,inhibition,[19],Active
same,Activity,[20],Active
same,IC50,[21],1.76 µM
same,Activity,[22],inactive
same,Activity,[23],Active
same,Activity,[24],Active
same,Activity,[25],72.5%
same,Activity,[26],85.1%
same,inhibition,[27],Dose-dependent effect
same,Activity,[28],3.74%
same,Activity,[29],Dose-dependent effect
